# Assay results as given in article PMC9081329, “Pharmacokinetics, Mass Balance, Excretion, and Tissue Distribution of Plasmalogen Precursor PPI-1011” (Frontiers in Cell and Developmental Biology, 2022).
# Experiment: Single dose tissue distribution study (QWBA, LSC of blood and plasma)
# Format: in vivo, Sprague-Dawley rats
# Protocol: Six male rats were administered a single oral dose of [^14C]PPI-1011 at 100 mg/kg (200 μCi/kg) and one rat was sacrificed at each of the following time points after the administration of the dose: 8, 12, 18, 24, 48, or 168 h. Terminal blood was collected by cardiac puncture directly into tubes with K2EDTA, an aliquot was stored at 4°C until LSC was performed for radioactivity, while the remaining blood was processed to plasma and stored at −20°C until LSC. Following blood collection, the carcasses were frozen in a cold bath with hexanes and dry ice for at least 8 min and then dried and stored at −70°C for at least 5 h. The carcasses were transferred to a −20°C freezer for at least 12 h before embedding.
# QWBA was used to determine radioactivity concentrations in the caecum (contents and mucosa), large intestine (contents and mucosa), small intestine (contents and mucosa), stomach (contents and mucosa), brain, choroid plexus, spinal cord, bone, skin, adrenal gland, pineal body, pituitary gland, thyroid gland, liver, kidney (cortex, medulla and whole kidney), urinary bladder (contents and wall), brown fat, white fat, eye (lens, uveal tract and whole eye), epididymis, prostate gland, testis, ovary, uterus, lung, exorbital lachrymal gland, Harderian gland, pancreas, salivary gland, skeletal muscle, myocardium, cardiac blood, bone marrow, lymph node, spleen, and thymus. As well, LSC was used to determine the total radioactivity in the whole blood and plasma.
# The whole-body cryosectioning technique described by ([Ullberg, 1977]) was the basis for embedding and cryosectioning the rats assigned to this study. Each frozen carcass was shaved, and then the limbs and tail were removed prior to embedding. Chilled (4°C) 3% CMC (low viscosity) was utilized to provide a firm support of reinforced ice around each rat and for a secure attachment to the microtome stage. Upon thorough freezing of the embedding medium surrounding each rat, the frozen CMC block was removed from the freezing bath and four 3/8 inch holes were drilled into the block. One cryosection quality control standard (CQCS) was prepared with a known amount of radioactivity and at least 1 ml aliquots were added to each of the four drilled holes. CQCS data were utilized to evaluate the overall performance of the QWBA assay.
# Each frozen rat was sagittally trimmed (50–100 μm) at −20°C until exposure of a few target tissues employing a Leica Cryomacrocut heavy-duty microtome (Leica Microsystems Inc.,). Disposable stainless steel Feather type H45L knives (Feather Safety Razor Co., Ltd.) were utilized for trimming and sectioning each frozen rat. Several thinner sections (50 μm) were discarded prior to obtaining multiple 50 μm sections at various cryosectioning levels for QWBA analysis. Upon the collection of at least 60 target tissues in multiple cryosectioning levels, the cryosections were kept in the Cryomacrocut cryochamber for a minimum of 18 h for dehydration depending upon the number of cryosections within the cryochamber. After dehydration was complete, the cryosections were transferred to ambient temperature for processing. Mounted whole-body cryosections and a set of 15 standards were sandwiched between a standard phosphor screen and an exposure cassette. All cryosections were exposed to the phosphor screen for 4-days in a cabinet protected with lead prior to scanning using a Typhoon PhosphorImager (Cytiva). MCID™ Analysis software (InterFocus Ltd.) was utilized to generate a calibration curve of the STD nominal concentrations (nCi/g) versus PhosphorImager response (counts/μm^2 minus background) by weighted (1/x) linear regression analysis ([Potchoiba et al., 1995]; [Potchoiba et al., 1998]). The linear regression curve was then utilized to determine the concentration (nCi/g) of total radioactivity in whole-body tissues and blood. Radioactivity concentrations were expressed as μg Eq/g based on the specific activity of the compound in the final dose formulations. […]
# [1] = 48 h post single oral 100 mg/kg
# [2] = 168 h post single oral 100 mg/kg
smiles,measurement,setting,value
CC/C=C\C/C=C\C/C=C\C/C=C\C/C=C\C/C=C\CCC(=O)O[C@H](CO[14CH2]CCCCCCCCCCCCCCC)COC(=O)CCCCC1CCSS1 (stereo partly shown) [[^14C]PPI-1011],"Radioactivity concentration, Small Intestines",[1],43.3 μg equivalents/g
same,"Radioactivity concentration, Spinal Cord",[1],2.56 μg equivalents/g
same,"Radioactivity concentration, Spleen",[1],33.1 μg equivalents/g
same,"Radioactivity concentration, Stomach",[1],8.01 μg equivalents/g
same,"Radioactivity concentration, Testis",[1],4.02 μg equivalents/g
same,"Radioactivity concentration, Thalamus",[1],1.91 μg equivalents/g
same,"Radioactivity concentration, Thymus",[1],9.58 μg equivalents/g
same,"Radioactivity concentration, Thyroid",[1],27.2 μg equivalents/g
same,"Radioactivity concentration, Whole Brain",[1],2.45 μg equivalents/g
same,"Radioactivity concentration, Adipose - Brown",[2],89.0 μg equivalents/g
same,"Radioactivity concentration, Adipose - Brown (Vessel Wall)",[2],76.7 μg equivalents/g
same,"Radioactivity concentration, Adipose - Subcutaneous",[2],89.3 μg equivalents/g
same,"Radioactivity concentration, Adipose - Visceral",[2],90.7 μg equivalents/g
same,"Radioactivity concentration, Adrenal Gland",[2],142 μg equivalents/g
same,"Radioactivity concentration, Bladder Wall",[2],< 0.485 μg equivalents/g
same,"Radioactivity concentration, Blood - QWBA",[2],2.56 μg equivalents/g
same,"Radioactivity concentration, Bone Marrow",[2],4.69 μg equivalents/g
same,"Radioactivity concentration, Cerebellum",[2],3.59 μg equivalents/g
same,"Radioactivity concentration, Cerebrum",[2],2.94 μg equivalents/g
same,"Radioactivity concentration, Choroid Plexus",[2],10.4 μg equivalents/g
same,"Radioactivity concentration, Colliculus",[2],3.97 μg equivalents/g
same,"Radioactivity concentration, Diaphragm",[2],11.7 μg equivalents/g
same,"Radioactivity concentration, Epididymis",[2],7.75 μg equivalents/g
same,"Radioactivity concentration, Esophagus",[2],5.34 μg equivalents/g
same,"Radioactivity concentration, Exorbital Lacrimal Gland",[2],7.36 μg equivalents/g
same,"Radioactivity concentration, Gastric Mucosa",[2],14.5 μg equivalents/g
same,"Radioactivity concentration, Harderian Gland",[2],3.67 μg equivalents/g
same,"Radioactivity concentration, Intra-Orbital Lacrimal Gland",[2],5.01 μg equivalents/g
same,"Radioactivity concentration, Kidney",[2],14.5 μg equivalents/g
same,"Radioactivity concentration, Large Intestines",[2],14.0 μg equivalents/g
same,"Radioactivity concentration, Liver",[2],7.50 μg equivalents/g
same,"Radioactivity concentration, Lung",[2],11.2 μg equivalents/g
same,"Radioactivity concentration, Lymph Node",[2],12.3 μg equivalents/g
same,"Radioactivity concentration, Medulla Oblongata",[2],3.13 μg equivalents/g
same,"Radioactivity concentration, Muscle",[2],7.01 μg equivalents/g
same,"Radioactivity concentration, Myocardium",[2],13.4 μg equivalents/g
same,"Radioactivity concentration, Nasal Turbinates",[2],4.29 μg equivalents/g
same,"Radioactivity concentration, Ocular - Uveal Tract",[2],6.48 μg equivalents/g
same,"Radioactivity concentration, Ocular - Whole Eye",[2],1.55 μg equivalents/g
same,"Radioactivity concentration, Olfactory Bulb",[2],2.25 μg equivalents/g
same,"Radioactivity concentration, Pancreas",[2],18.2 μg equivalents/g
same,"Radioactivity concentration, Parotid Gland",[2],12.3 μg equivalents/g
same,"Radioactivity concentration, Pineal Gland",[2],12.0 μg equivalents/g
same,"Radioactivity concentration, Pituitary Gland",[2],12.9 μg equivalents/g
same,"Radioactivity concentration, Preputial Gland",[2],69.0 μg equivalents/g
same,"Radioactivity concentration, Prostate",[2],4.44 μg equivalents/g
same,"Radioactivity concentration, Renal Cortex",[2],15.3 μg equivalents/g
same,"Radioactivity concentration, Renal Medulla",[2],11.8 μg equivalents/g
same,"Radioactivity concentration, Salivary Gland",[2],15.4 μg equivalents/g
same,"Radioactivity concentration, Seminal Vesicles",[2],< 0.485 μg equivalents/g
same,"Radioactivity concentration, Skin - Non-Pigmented",[2],10.2 μg equivalents/g
same,"Radioactivity concentration, Small Intestines",[2],139 μg equivalents/g
same,"Radioactivity concentration, Spinal Cord",[2],3.33 μg equivalents/g
same,"Radioactivity concentration, Spleen",[2],9.36 μg equivalents/g
same,"Radioactivity concentration, Stomach",[2],4.97 μg equivalents/g
same,"Radioactivity concentration, Testis",[2],3.08 μg equivalents/g
same,"Radioactivity concentration, Thalamus",[2],2.78 μg equivalents/g
same,"Radioactivity concentration, Thymus",[2],7.84 μg equivalents/g
same,"Radioactivity concentration, Thyroid",[2],18.9 μg equivalents/g
same,"Radioactivity concentration, Whole Brain",[2],3.08 μg equivalents/g
same,"Decline of radioactivity from peak concentration, brown adipose","by 168 HPD, single dose",approximately 5 fold
same,"Decline of radioactivity from peak concentration, subcutaneous adipose","by 168 HPD, single dose",~2 fold
same,"Decline of radioactivity from peak concentration, visceral adipose","by 168 HPD, single dose",~3 fold
same,"Average concentration in choroid plexus, pineal gland, pituitary gland versus non-circumventricular CNS tissues",seven days after single dose,approximately 4 fold
same,Radioactivity in urine within the urinary bladder,single dose,no detection of radioactivity
same,Time of highest blood concentration,single dose,8 HPD
same,"Time of highest peak concentration, bladder wall",single dose,8 HPD
same,"Time of highest peak concentration, brown adipose",single dose,12 HPD
same,"Time of highest peak concentration, cecum",single dose,12 HPD
same,"Time of highest peak concentration, choroid plexus",single dose,12 HPD
same,"Time of highest peak concentration, epididymis",single dose,12 HPD
same,"Time of highest peak concentration, esophagus",single dose,8 HPD
same,"Time of highest peak concentration, gastric mucosa",single dose,8 HPD
same,"Time of highest peak concentration, large intestines",single dose,12 HPD
same,"Time of highest peak concentration, pineal gland",single dose,48 HPD
same,"Time of highest peak concentration, pituitary gland",single dose,18 HPD
same,"Time of highest peak concentration, preputial gland",single dose,12 HPD
same,"Time of highest peak concentration, prostate",single dose,24 HPD
same,"Time of highest peak concentration, small intestines",single dose,8 HPD
same,"Time of highest peak concentration, stomach",single dose,12 HPD
same,"Time of highest peak concentration, subcutaneous adipose",single dose,12 HPD
same,"Time of highest peak concentration, testis",single dose,18 HPD
same,"Time of highest peak concentration, visceral adipose",single dose,12 HPD
same,"Time of peak levels, non-circumventricular CNS tissue",single dose,168 HPD
same,"Concentration in choroid plexus, pineal gland, pituitary gland versus non-circumventricular CNS tissues","throughout the time course, single dose",approximately 4 fold
